According to US8258114B2, “Modulation of glucose-6-phosphatase translocase expression” (Isis Pharmaceuticals, Inc., priority 2004, dated 2012):
Read-outs that look alike come from different tables or passages of the source.

Key:
[1] = tested on: glucose-6-phosphatase translocase mRNA; test: Target mRNA reduction in liver of db/db mice, dose-response study; format: in vivo, mouse
Protocol: (§1) Seven-week old male C57B1/6J-Lepr db/db mice (Jackson Laboratory, Bar Harbor, Me.) were fed a diet with a fat content of about 14% (Formulab Diet 5008) and were subcutaneously injected with ISIS 116847 (SEQ ID NO: 143), ISIS 141923 (SEQ ID NO: 144), or ISIS 148985 (SEQ ID NO: 118), an antisense inhibitor of glucose-6-phosphatase translocase, at a dose of 25 mg/kg two times per week for 4 weeks. […] Saline-injected animals served as controls. 48 hours after the eighth and final dose was administered, mice were sacrificed and target levels were evaluated in liver. RNA isolation and target mRNA expression level quantitation were performed as described by other examples herein.
Glucose-6-phosphatase translocase mRNA levels in db/db mouse livers were measured at the end of study using RIBOGREEN™ RNA quantification reagent (Molecular Probes, Inc. Eugene, Oreg.) as taught in previous examples above. Data are expressed as the average of 5 animals per treatment group. […] Target mRNA levels were reduced by approximately 21% by ISIS 148985. […] Therefore, antisense inhibitors of glucose-6-phosphatase translocase reduced target mRNA levels in the liver of db/db mice, and ISIS 149008 did so in a dose-dependent manner.

[2] = Liver triglycerides and glycogen stores in db/db mice (Table 8); format: in vivo, mouse
Protocol: as §1, with “at a dose of 25 mg/kg two times per week for 4 weeks.” left out
Patients with the human glycogen storage disease type 1b have mutations in the glucose-6-phosphatase translocase gene. Because one manifestation of these mutations is a defect in hepatic glycogen deposition, the db/db mice were further evaluated at the end of the treatment period for liver glycogen stores. Tissue glycogen levels were measured using the Glucose Trinder Reagent (Sigma-Aldrich, St. Louis, Mo.). Tissue triglyceride levels were measured using a Triglyceride GPO Assay from Roche Diagnostics (Indianapolis, Ind.). Liver triglyceride levels were used to assess hepatic steatosis, or accumulation of lipids in the liver. Hepatic steatosis was also assessed by routine histological analysis of frozen liver tissue sections stained with oil red 0 stain, which is commonly used to visualize lipid deposits, and counterstained with hematoxylin and eosin, to visualize nuclei and cytoplasm, respectively. Data are presented in Table 8 as the averages from 5 animals per treatment group.

[3] = mouse, in vivo, sc, 25 mg/kg
Protocol: Seven-week old male C57B1/6J-Lep ob/ob mice (Jackson Laboratory, Bar Harbor, Me.) were fed a diet with a fat content of about 22% and were subcutaneously injected with oligonucleotides at a dose of 25 mg/kg two times per week. A total of eight doses were administered. Glucose-6-phosphatase translocase antisense oligonucleotides used were ISIS 148985 (SEQ ID NO: 118) and ISIS 149008 (SEQ ID NO: 141). ISIS 116847 ([…]; incorporated herein as SEQ ID NO: 143), targeted to mouse PTEN, was used as a positive control. Saline-injected animals served as negative controls. Animals were sacrificed 48 hours after the last dose of oligonucleotide was administered, and liver triglycerides, liver glycogen, and target reduction in liver were measured.
Hepatic steatosis, or buildup of lipids in the liver, was assessed by measuring the liver triglyceride content. Tissue triglycerides were measured with a Triglyceride GPO assay from Roche Diagnostics (Indianapolis, Ind.). Data are presented as averages from 5 animals per treatment group. Triglycerides were approximately 178 mg/g for saline treated mice, 162 mg/g for ISIS 149008-treated mice, 168 mg/g for ISIS 148985-treated mice, and 187 mg/g for ISIS 116847 (PTEN)-treated mice. Thus liver triglycerides were not increased in antisense-treated animals.
Tissue glycogen was measured using the Glucose Trinder Reagent (Sigma-Aldrich, St. Louis, Mo.). Glycogen levels of mice treated with saline alone were approximately 31 mg/g of tissue. Levels in mice treated with the positive control antisense compound ISIS 116847, targeted to PTEN, had levels of approximately 25 mg/g. Mice treated with ISIS 149008 or 148985, the antisense inhibitors of glucose-6-phosphatase translocase, had glycogen levels of approximately 31 mg/g and 30 mg/g, respectively.

[4] = tested on: glucose-6-phosphatase translocase mRNA; test: Target mRNA reduction in liver of lean ob/ob+/- mice; format: in vivo, mouse; details: 50 mg/kg s.c. twice weekly, five doses
Protocol: Ob/ob mice have a mutation in the leptin gene which results in obesity and hyperglycemia. […] Seven-week old ob/ob+/−male mice were dosed twice weekly with 50 mg/kg of antisense oligonucleotide, given subcutaneously. A total of five doses were given. glucose-6-phosphatase translocase antisense oligonucleotides used were ISIS 148985 (SEQ ID NO: 118) and ISIS 149008 (SEQ ID NO: 141). Each treatment group was comprised of 4 animals. Animals were sacrificed 48 hours after the last dose of oligonucleotide was administered, and liver triglycerides, liver glycogen content, and target reduction in liver were measured.
Glucose-6-phosphatase translocase mRNA levels in liver were measured at the end of study using RiboGreen™ RNA quantification reagent (Molecular Probes, Inc. Eugene, Oreg.) as taught in previous examples above.
Glucose-6-phosphatase translocase mRNA levels were reduced by approximately 51% in lean mice treated with ISIS 148985, and by approximately 88% in lean mice treated with ISIS 149008, when compared to saline treatment. Thus the antisense compounds ISIS 149008 and ISIS 148985 were effective in reducing liver glucose-6-phosphatase translocase mRNA levels in vivo.

[5] = 25 mg/kg twice weekly for 4 weeks
[6] = 25 mg/kg twice weekly 4 weeks (25 mg/mL [sic]), saline 25
[7] = 25 mg/kg twice weekly 4 weeks (25 mg/mL [sic]), saline 47

Sequence | Glucose-6-phosphatase translocase mRNA levels in liver, reduction compared to saline [1, 5] | Liver Triglycerides [2, 6] | Liver Glycogen [2, 7] | Liver Triglycerides [3] | Liver glycogen levels [3] | Glucose-6-phosphatase translocase mRNA levels in liver, reduction compared to saline [4] | Glucose-6-phosphatase translocase mRNA levels in liver, reduction compared to saline ([1]; 6.25 mg/kg twice weekly for 4 weeks) | Glucose-6-phosphatase translocase mRNA levels in liver, reduction compared to saline ([1]; 12.5 mg/kg twice weekly for 4 weeks) | Liver Glycogen ([2]; dose 12.5 mg/mL [sic]) | Liver Triglycerides ([2]; dose 12.5 mg/mL [sic]) | Liver Glycogen ([2]; dose printed 6 mg/mL) | Liver Triglycerides ([2]; dose printed 6 mg/mL)
CCTTCCCTGAAGGTTCCTCC (chemistry not given here) [ISIS 141923, scrambled control oligonucleotide, negative control, reference compound] | approximately 1% | 30 mg/g | 43 mg/g |  |  |  |  |  |  |  |  | 
CTGCTAGCCTCTGGATTTGA (chemistry not given here) [ISIS 116847, positive control oligonucleotide targeted to mouse PTEN, reference compound] | approximately 27% | 67 mg/g | 39 mg/g | ~187 mg/g | approximately 25 mg/g |  |  |  |  |  |  | 
GCTCCATAGCGAGGACTCGA (chemistry not given here) [ISIS 148985] | approximately 21% |  | 47 mg/g | ~168 mg/g | ~30 mg/g | approximately 51% |  |  |  |  |  | 
TATACAAGTCGGTTTGCCCT (chemistry not given here) [ISIS 149008] | approximately 81% | 58 mg/g | 45 mg/g | ~162 mg/g | approximately 31 mg/g | approximately 88% | approximately 45% | approximately 69% | 45 mg/g | 41 mg/g | 48 mg/g | 33 mg/g
